Experimental data published in patent US11390621B2, “Chiral indole compounds and their use” (ARIAGEN, INC., priority 2019, dated 2022).

Tests used:
Format in all cases: in vitro ADME
[1] = Hepatocyte intrinsic clearance assay (metabolic stability), human hepatocytes; details: male, human, cryopreserved pooled hepatocytes, Human Hepatocytes, 1 μM test compound
Description: (§1) The liver is an important organ in the body for drug metabolism. This Example describes hepatocyte intrinsic clearance assays using both human and rat hepatocytes to evaluate the metabolic stability of the indole compounds disclosed herein. The parameters measured include t1/2 (half-life), CLint (intrinsic clearance), and EH (hepatic extraction ratio).
(§2) Testosterone (Lot FE111011-01) was obtained from Cerilliant (Round Rock, Tex.). 7-hydroxycoumarin (Lot 11631ED) was obtained from Sigma Aldrich (St. Louis, Mo.). Cryopreserved human hepatocytes pooled from ten donor males (X008001), cryopreserved male IRC/CD-1 mouse hepatocytes (M005052), INVITROGRO HI Medium (incubation), and INVITROGRO HT Medium (thawing) were obtained from Bioreclamation IVT (Baltimore, Md.). All solvents were obtained from commercial sources and used without further purification.
(§3) Each test compound was prepared as a 1 mM stock solution in DMSO. A 2 μM solution of test compound and positive controls were prepared in INVITROGRO HI Medium (incubation). These solutions were pre-warmed in a sterile incubator set to maintain 37° C., 5% CO2, and 98% humidity. Cryopreserved hepatocytes were prepared at a concentration of 2×10^6 living cells/mL in incubation media and pre-warmed in the incubator. The compound solutions and hepatocyte mixtures were then combined at a ratio of 1:1 (v:v). The final volume of the reaction mixture was 750 μL, containing 1 μM test compound (10 μM for 7-hydroxycoumarin) and […]. The reaction mixture was placed in the incubator on a plate shaker. After 0, 15, 30, 60, 90, and 120 minutes of incubation, 100 μL of reaction mixtures were removed from the incubation plate and mixed with 150 μL of ice-cold acetonitrile in a designated well of a 96-well crash plate. The 96-well crash plate was placed on ice for 15 min, and samples were centrifuged (3,600 RPM, 10 min, 4° C.) to precipitate protein. The supernatants were diluted 1:1 (v:v) with water containing 0.15 μM verapamil and/or 1 μM tolbutamide (internal standards for positive and negative modes, respectively) in a 96-well shallow injection plate. This plate was sealed for LC-MS analysis. All measurements were done in duplicate.
(§4) The residual compound remaining (% R) was determined from LC-MS peak areas by comparison to the zero time point. Metabolic half-life (t1/2) and intrinsic clearance (CLint) values were calculated from the slope of the plot of ln (% R) vs. time and the concentration of hepatocytes present in the incubation. Percent remaining at 60 minutes was calculated by plugging in the 60 minute value into the slope equation generated by the percent remaining time points.
(§5) In vivo hepatic clearance CLH was calculated using the well stirred liver model according to the following equation:
(§6) [formula] where QH is the total liver blood flow, fu is unbound fraction of the drug, and CL′int is defined as follows: CL′int=CLint×(10^6 cells/g of liver weight)×(g liver weight/kg of body weight). In the first approximation, used in this study, fu=1.
(§7) Hepatic extraction ratio EH was calculated using the following equation:
(§8) [formula] Corresponding physiological parameters used in calculations for all species are shown below in Table 3.

human hepatocytes = assay: as above; details: Human Hepatocytes; well stirred liver model, fu=1
Description: as §1, §2, §3, §4, §5, §6, §7, §8

[2] = Hepatocyte intrinsic clearance assay (metabolic stability), rat hepatocytes; details: rat, cryopreserved hepatocytes, Rat Hepatocytes, 1 μM test compound
Description: as §1, §2, §3, §4, §5, §6, §7, §8

rat hepatocytes = assay: as above; details: Rat Hepatocytes; well stirred liver model, fu=1
Description: as §1, §2, §3, §4, §5, §6, §7, §8

[3] = CYP profiling: turnover in human liver microsomes, 30 min, no inhibitor; parameters: % Compound Metabolized at 30 min, No Inhibitor: concentration or dose not given beside the values; details: HLMs
Description: (§9) In order to investigate the contributions of CYP1A2 and CYP3A4 to the metabolism of the compounds of the present disclosure, human liver microsomes were incubated with the test compounds for 30 minutes in the presence of selective chemical inhibitors furafylline (1A2) and ketoconazole (3A4).

CYP1A2 = target: T1, CYP1A2 (Homo sapiens, UniProt P05177); assay: CYP profiling: human liver microsomes with CYP1A2 inhibitor furafylline; parameters: % Compound Metabolized at 30 min, CYP1A2 Inhibitor: concentration or dose not given beside the values; details: HLMs
T1 construct: from tissue; host or cells: human liver microsomes
T1 sequence (P05177 1-516): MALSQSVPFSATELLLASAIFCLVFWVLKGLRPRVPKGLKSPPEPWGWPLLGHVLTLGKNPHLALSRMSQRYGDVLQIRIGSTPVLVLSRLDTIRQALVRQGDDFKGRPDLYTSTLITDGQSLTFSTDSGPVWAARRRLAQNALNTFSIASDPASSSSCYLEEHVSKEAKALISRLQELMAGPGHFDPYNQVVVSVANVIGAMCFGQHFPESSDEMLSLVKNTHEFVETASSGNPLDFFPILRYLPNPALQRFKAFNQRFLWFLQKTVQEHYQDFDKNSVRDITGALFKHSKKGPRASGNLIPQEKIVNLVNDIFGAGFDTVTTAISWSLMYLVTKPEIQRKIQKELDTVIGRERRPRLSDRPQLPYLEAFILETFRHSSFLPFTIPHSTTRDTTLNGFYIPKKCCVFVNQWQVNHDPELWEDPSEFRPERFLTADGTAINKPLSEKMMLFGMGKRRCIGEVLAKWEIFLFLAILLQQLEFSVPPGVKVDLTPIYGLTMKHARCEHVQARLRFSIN
Description: as §9

CYP3A4 = target: T2, CYP3A4 (Homo sapiens, UniProt P08684); assay: CYP profiling: human liver microsomes with CYP3A4 inhibitor ketoconazole; parameters: % Compound Metabolized at 30 min, CYP3A4 Inhibitor: concentration or dose not given beside the values; details: HLMs
T2 construct: from tissue; host or cells: human liver microsomes
Description: as §9

T2 sequence (P08684 whole entry): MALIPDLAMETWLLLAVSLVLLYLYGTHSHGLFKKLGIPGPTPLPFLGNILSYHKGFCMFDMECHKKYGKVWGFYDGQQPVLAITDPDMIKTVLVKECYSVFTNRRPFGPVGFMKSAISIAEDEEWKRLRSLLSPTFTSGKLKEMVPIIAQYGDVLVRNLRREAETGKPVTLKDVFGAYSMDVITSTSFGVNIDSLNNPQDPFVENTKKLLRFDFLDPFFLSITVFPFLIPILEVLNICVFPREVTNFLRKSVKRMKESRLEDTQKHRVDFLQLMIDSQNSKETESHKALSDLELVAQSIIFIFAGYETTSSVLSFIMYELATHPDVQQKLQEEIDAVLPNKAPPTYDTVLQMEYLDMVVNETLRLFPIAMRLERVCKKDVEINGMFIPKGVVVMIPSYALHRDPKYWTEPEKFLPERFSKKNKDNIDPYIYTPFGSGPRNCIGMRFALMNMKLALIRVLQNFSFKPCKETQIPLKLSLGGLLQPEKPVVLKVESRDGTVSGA

## NC(c1csc(C(=O)c2c[nH]c3ccccc23)n1)C(F)(F)F (centres unmarked) [ARI-100]
[1]
  half-life at 1 μM: 46.1 h
  hepatocyte CLint at 1 μM: 0.251 µL/min/1e6 cells
Human hepatocytes
  EH (hepatic extraction ratio): 1.9%
[2]
  half-life at 1 μM: 1.3 h
  hepatocyte CLint at 1 μM: 8.73 µL/min/1e6 cells
Rat hepatocytes
  EH (hepatic extraction ratio): 36.9%
[3]
  % Compound Metabolized at 30 min, No Inhibitor: 2%
CYP1A2
  % Compound Metabolized at 30 min, CYP1A2 Inhibitor: 0%
CYP1A2; 30 min
  % Inhibition Relative to Negative Control, 1A2: 100%
CYP3A4
  % Compound Metabolized at 30 min, CYP3A4 Inhibitor: 8%
CYP3A4; 30 min
  % Inhibition Relative to Negative Control, 3A4: None
